From PubChem BioAssay (NCI)
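Protocol summary: plate cells (96-well), add compound at 5 concentrations, incubate 48 h, interpolate endpoints linearly. The concentration for full growth arrest is given as TGI.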

Tests used:
Experiment in all cases: DTP human tumour cell line panel, 48 h
HL-60(TB) leukemia = tested on: HL-60(TB) leukemia
M14 melanoma = tested on: M14 melanoma
SNB-19 CNS = tested on: SNB-19 CNS
UACC-257 melanoma = tested on: UACC-257 melanoma
SW-620 colon = tested on: SW-620 colon
ACHN renal = tested on: ACHN renal
NCI-H23 lung = tested on: NCI-H23 lung
K-562 leukemia = tested on: K-562 leukemia
MDA-MB-435 = tested on: MDA-MB-435
LOX IMVI melanoma = tested on: LOX IMVI melanoma
SF-295 CNS = tested on: SF-295 CNS
RPMI-8226 leukemia = tested on: RPMI-8226 leukemia
HT29 colon = tested on: HT29 colon
HCT-116 colon = tested on: HCT-116 colon
U251 CNS = tested on: U251 CNS
KM12 colon = tested on: KM12 colon
HOP-92 NSCLC = tested on: HOP-92 NSCLC
SNB-75 CNS = tested on: SNB-75 CNS
T-47D breast = tested on: T-47D breast
MCF7 breast = tested on: MCF7 breast
SF-268 CNS = tested on: SF-268 CNS
TK-10 renal = tested on: TK-10 renal
OVCAR-8 ovarian = tested on: OVCAR-8 ovarian
A549 NSCLC = tested on: A549 NSCLC
CAKI-1 renal = tested on: CAKI-1 renal
NCI/ADR-RES ovarian = tested on: NCI/ADR-RES ovarian
SF-539 CNS = tested on: SF-539 CNS
HS 578T breast = tested on: HS 578T breast
786-0 renal = tested on: 786-0 renal
NCI-H522 lung = tested on: NCI-H522 lung
COLO 205 colon = tested on: COLO 205 colon
IGROV1 ovarian = tested on: IGROV1 ovarian
MALME-3M melanoma = tested on: MALME-3M melanoma
SK-MEL-5 melanoma = tested on: SK-MEL-5 melanoma
CCRF-CEM leukemia = tested on: CCRF-CEM leukemia
SK-OV-3 ovarian = tested on: SK-OV-3 ovarian
A498 renal = tested on: A498 renal
MDA-N = tested on: MDA-N
DU-145 prostate = tested on: DU-145 prostate
OVCAR-4 ovarian = tested on: OVCAR-4 ovarian
SK-MEL-28 melanoma = tested on: SK-MEL-28 melanoma
MDA-MB-231 breast = tested on: MDA-MB-231 breast
OVCAR-5 ovarian = tested on: OVCAR-5 ovarian
NCI-H226 lung = tested on: NCI-H226 lung
OVCAR-3 ovarian = tested on: OVCAR-3 ovarian
MOLT-4 leukemia = tested on: MOLT-4 leukemia
EKVX NSCLC = tested on: EKVX NSCLC
SN12C renal = tested on: SN12C renal
UACC-62 melanoma = tested on: UACC-62 melanoma
BT-549 breast = tested on: BT-549 breast
UO-31 renal = tested on: UO-31 renal
HOP-62 NSCLC = tested on: HOP-62 NSCLC
PC-3 prostate = tested on: PC-3 prostate
SK-MEL-2 melanoma = tested on: SK-MEL-2 melanoma
HCT-15 colon = tested on: HCT-15 colon
HCC-2998 colon = tested on: HCC-2998 colon
NCI-H460 lung = tested on: NCI-H460 lung
RXF 393 renal = tested on: RXF 393 renal
SR leukemia = tested on: SR leukemia

Measured: TGI

CC(=O)N/N=C1\NC(=O)C[C@H]2[C@@H]3CC=C4C[C@@H](OC(C)=O)CC[C@]4(C)[C@H]3CC[C@]12C
45.1 µM: SF-295 CNS
52.7 µM: ACHN renal
31.9 µM: HOP-92 NSCLC
54.6 µM: NCI-H226 lung
46.9 µM: SNB-75 CNS
33 µM: SK-MEL-28 melanoma
43.1 µM: 786-0 renal
25.9 µM: SF-539 CNS
25.7 µM: OVCAR-4 ovarian
41.7 µM: TK-10 renal
39.9 µM: SNB-19 CNS
88.6 µM: HS 578T breast
28.7 µM: U251 CNS
> 100 µM: HL-60(TB) leukemia | M14 melanoma | UACC-257 melanoma | SW-620 colon | NCI-H23 lung | K-562 leukemia | MDA-MB-435 | LOX IMVI melanoma | RPMI-8226 leukemia | HT29 colon | HCT-116 colon | KM12 colon | T-47D breast | MCF7 breast | SF-268 CNS | OVCAR-8 ovarian | A549 NSCLC | CAKI-1 renal | NCI/ADR-RES ovarian | NCI-H522 lung | COLO 205 colon | IGROV1 ovarian | MALME-3M melanoma | SK-MEL-5 melanoma | CCRF-CEM leukemia | MDA-N | DU-145 prostate | OVCAR-5 ovarian | OVCAR-3 ovarian | MOLT-4 leukemia | EKVX NSCLC | SN12C renal | UO-31 renal | PC-3 prostate | SK-MEL-2 melanoma | HCT-15 colon
35.2 µM: A498 renal
59 µM: UACC-62 melanoma
53.7 µM: SK-OV-3 ovarian
32.5 µM: HOP-62 NSCLC
39.3 µM: MDA-MB-231 breast
32.7 µM: BT-549 breast

CSc1c(C#N)c(N)n2c1C(=O)N(c1ccccc1)C2=S
80.7 µM: HS 578T breast
69.7 µM: OVCAR-4 ovarian
78.3 µM: COLO 205 colon
> 100 µM: HL-60(TB) leukemia | M14 melanoma | SNB-19 CNS | UACC-257 melanoma | SW-620 colon | ACHN renal | NCI-H23 lung | K-562 leukemia | MDA-MB-435 | LOX IMVI melanoma | SF-295 CNS | HT29 colon | HCT-116 colon | U251 CNS | KM12 colon | HOP-92 NSCLC | SNB-75 CNS | T-47D breast | MCF7 breast | SF-268 CNS | TK-10 renal | OVCAR-8 ovarian | A549 NSCLC | CAKI-1 renal | NCI/ADR-RES ovarian | SF-539 CNS | 786-0 renal | IGROV1 ovarian | MALME-3M melanoma | HCC-2998 colon | SK-MEL-5 melanoma | CCRF-CEM leukemia | NCI-H460 lung | SK-OV-3 ovarian | MDA-N | DU-145 prostate | SK-MEL-28 melanoma | RXF 393 renal | OVCAR-5 ovarian | NCI-H226 lung | OVCAR-3 ovarian | MOLT-4 leukemia | EKVX NSCLC | SN12C renal | UACC-62 melanoma | BT-549 breast | UO-31 renal | HOP-62 NSCLC | PC-3 prostate | HCT-15 colon
57.7 µM: NCI-H522 lung
94.3 µM: A498 renal
45.6 µM: MDA-MB-231 breast

COc1ccc(C#CC(=O)O)c(OC)c1
> 100 µM: HL-60(TB) leukemia | M14 melanoma | SNB-19 CNS | UACC-257 melanoma | SW-620 colon | ACHN renal | NCI-H23 lung | K-562 leukemia | MDA-MB-435 | LOX IMVI melanoma | SF-295 CNS | RPMI-8226 leukemia | HT29 colon | HCT-116 colon | U251 CNS | KM12 colon | HOP-92 NSCLC | SR leukemia | T-47D breast | MCF7 breast | TK-10 renal | OVCAR-8 ovarian | A549 NSCLC | CAKI-1 renal | NCI/ADR-RES ovarian | SF-539 CNS | HS 578T breast | 786-0 renal | COLO 205 colon | MALME-3M melanoma | HCC-2998 colon | SK-MEL-5 melanoma | CCRF-CEM leukemia | NCI-H460 lung | SK-OV-3 ovarian | A498 renal | MDA-N | DU-145 prostate | OVCAR-4 ovarian | SK-MEL-28 melanoma | MDA-MB-231 breast | OVCAR-5 ovarian | NCI-H226 lung | OVCAR-3 ovarian | MOLT-4 leukemia | EKVX NSCLC | SN12C renal | UACC-62 melanoma | BT-549 breast | UO-31 renal | HOP-62 NSCLC | PC-3 prostate | SK-MEL-2 melanoma | HCT-15 colon
